Data reported in patent US20250059198A1, “BRM DEGRADING COMPOUNDS AND ASSOCIATED METHODS OF USE” (Arvinas Operations, Inc., priority 2021, published 2025).

Biological target: T1, BRM (Homo sapiens, UniProt P51531)
T1 construct: Western Blot Screen of BRM Degradation in SW1573 Cells; endogenous in cells; host or cells: SW1573 cells
Test: BRM degradation (Dmax and DC50) in SW1573 cells, Western blot screen / In-Cell Western screen
Assay type: cell-based
Conditions: overnight (18-20 hours) treatment; for Dmax: read-out: Dmax (%)** (% degraded)
Outline: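 Dmax and DC50 were derived from BRM levels normalised to an alpha-tubulin control, measured by chemiluminescent Western blotting of lysates or by PFA-fixed In-Cell Western on LI-COR Odyssey. SW1573 cells received compound overnight (18–20 h, 0.1% DMSO final).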

T1 sequence (P51531 whole entry): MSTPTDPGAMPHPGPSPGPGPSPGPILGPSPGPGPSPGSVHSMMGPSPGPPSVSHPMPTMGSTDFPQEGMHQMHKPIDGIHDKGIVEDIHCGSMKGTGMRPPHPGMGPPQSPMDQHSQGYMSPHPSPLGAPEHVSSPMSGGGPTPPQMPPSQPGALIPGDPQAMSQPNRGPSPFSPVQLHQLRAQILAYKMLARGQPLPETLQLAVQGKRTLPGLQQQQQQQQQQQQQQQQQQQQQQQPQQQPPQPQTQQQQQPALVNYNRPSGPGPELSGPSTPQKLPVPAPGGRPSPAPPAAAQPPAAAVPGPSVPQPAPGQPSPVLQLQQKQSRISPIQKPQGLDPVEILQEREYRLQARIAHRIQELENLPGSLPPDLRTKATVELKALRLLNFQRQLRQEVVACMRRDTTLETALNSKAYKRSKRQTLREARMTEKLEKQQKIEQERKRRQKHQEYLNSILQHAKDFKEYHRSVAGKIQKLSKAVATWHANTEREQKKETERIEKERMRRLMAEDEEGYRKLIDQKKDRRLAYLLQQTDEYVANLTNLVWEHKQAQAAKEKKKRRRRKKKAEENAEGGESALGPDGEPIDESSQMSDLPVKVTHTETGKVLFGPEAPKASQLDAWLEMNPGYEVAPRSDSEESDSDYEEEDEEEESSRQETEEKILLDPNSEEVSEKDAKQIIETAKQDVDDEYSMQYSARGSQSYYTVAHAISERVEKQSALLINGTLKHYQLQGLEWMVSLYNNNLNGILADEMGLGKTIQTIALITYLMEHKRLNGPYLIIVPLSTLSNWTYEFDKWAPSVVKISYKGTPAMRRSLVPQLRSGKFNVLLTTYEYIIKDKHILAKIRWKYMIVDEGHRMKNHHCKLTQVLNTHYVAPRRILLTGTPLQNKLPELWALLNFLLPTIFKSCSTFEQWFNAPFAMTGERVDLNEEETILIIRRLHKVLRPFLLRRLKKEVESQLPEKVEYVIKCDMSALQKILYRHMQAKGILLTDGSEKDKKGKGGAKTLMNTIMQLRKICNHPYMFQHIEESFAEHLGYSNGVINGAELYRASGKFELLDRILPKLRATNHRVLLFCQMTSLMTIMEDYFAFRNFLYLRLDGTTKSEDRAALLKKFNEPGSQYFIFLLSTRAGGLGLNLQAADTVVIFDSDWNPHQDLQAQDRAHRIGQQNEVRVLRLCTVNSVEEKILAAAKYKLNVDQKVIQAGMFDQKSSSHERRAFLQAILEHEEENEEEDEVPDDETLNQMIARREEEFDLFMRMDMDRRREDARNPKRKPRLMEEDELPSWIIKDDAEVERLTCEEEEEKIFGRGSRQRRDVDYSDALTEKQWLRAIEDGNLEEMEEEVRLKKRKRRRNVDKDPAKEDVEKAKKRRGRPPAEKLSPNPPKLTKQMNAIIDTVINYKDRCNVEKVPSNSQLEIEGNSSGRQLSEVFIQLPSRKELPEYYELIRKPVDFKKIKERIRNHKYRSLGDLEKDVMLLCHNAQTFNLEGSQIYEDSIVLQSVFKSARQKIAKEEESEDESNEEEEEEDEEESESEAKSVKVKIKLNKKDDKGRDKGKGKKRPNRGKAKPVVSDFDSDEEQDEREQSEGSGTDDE

Compound	DC50 [nM]	Dmax [%]
Cc1ncsc1-c1ccc([C@H](C)NC(=O)[C@@H]2C[C@@H](O)CN2C(=O)[C@@H](c2cc(OCCOC(=O)N3CCC(O[C@H]4C[C@H](Oc5cc(N6C7CCC6CN(c6cc(-c8ccccc8O)nnc6N)C7)ccn5)C4)CC3)no2)C(C)C)cc1 [Compound 127, 2-({5-[(2R)-1-[(2S,4R)-4-hydroxy-2-{[(1S)-1-[4-(4-methyl-1,3-thiazol-5-yl)phenyl]ethyl]carbamoyl}pyrrolidin-1-yl]-3-methyl-1-oxobutan-2-yl]-1,2-oxazol-3-yl}oxy)ethyl 4-[(1r,3r)-3-[(4-{3-[3-amino-6-(2-hydroxyphenyl)pyridazin-4-yl]-3,8-diazabicyclo[3.2.1]octan-8-yl}pyridin-2-yl)oxy]cyclobutoxy]piperidine-1-carboxylate]	≥ 30	
Cc1ncsc1-c1ccc([C@H](C)NC(=O)[C@@H]2C[C@@H](O)CN2C(=O)[C@@H](c2cc(OCCN3CCC(O[C@H]4C[C@H](OC(=O)N5CCN(c6cc(-c7ccccc7O)nnc6N)CC5)C4)CC3)no2)C(C)C)cc1 [Compound 81, (1r,3r)-3-({1-[2-({5-[(2R)-1-[(2S,4R)-4-hydroxy-2-{[(1S)-1-[4-(4-methyl-1,3-thiazol-5-yl)phenyl]ethyl]carbamoyl}pyrrolidin-1-yl]-3-methyl-1-oxobutan-2-yl]-1,2-oxazol-3-yl}oxy)ethyl]piperidin-4-yl}oxy)cyclobutyl 4-[3-amino-6-(2-hydroxyphenyl)pyridazin-4-yl]piperazine-1-carboxylate]	< 2.5	> 75
Cc1ncsc1-c1ccc([C@H](C)NC(=O)[C@@H]2C[C@@H](O)CN2C(=O)[C@H](c2cc(N3CCC(O[C@H]4CC[C@@H](Oc5cc(N6C7CCC6CN(c6cc(-c8ccccc8O)nnc6N)C7)ccn5)CC4)CC3)no2)C(C)C)cc1 [Compound 79, (2S,4R)-4-hydroxy-N-[(1S)-1-[4-(4-methyl-1,3-thiazol-5-yl)phenyl]ethyl]-1-[(2S)-3-methyl-2-[3-(4-{[(1s,4s)-4-[(4-{3-[3-amino-6-(2-hydroxyphenyl)pyridazin-4-yl]-3,8-diazabicyclo[3.2.1]octan-8-yl}pyridin-2-yl)oxy]cyclohexyl]oxy}piperidin-1-yl)-1,2-oxazol-5-yl]butanoyl]pyrrolidine-2-carboxamide]	≥ 30	
CC(C)[C@H](C(=O)N1C[C@H](O)C[C@H]1C(=O)N[C@@H](C)c1ccc(-c2scnc2C#CCOCCOCCOCCOCCOc2cc(N3C4CCC3CN(c3cc(-c5ccccc5O)nnc3N)C4)ccn2)cc1)N1Cc2ccccc2C1=O [Compound 82, (2S,4R)-N-[(1S)-1-[4-(4-{1-[(4-{3-[3-amino-6-(2-hydroxyphenyl)pyridazin-4-yl]-3,8-diazabicyclo[3.2.1]octan-8-yl}pyridin-2-yl)oxy]-3,6,9,12-tetraoxapentadec-14-yn-15-yl}-1,3-thiazol-5-yl)phenyl]ethyl]-4-hydroxy-1-[(2R)-3-methyl-2-(1-oxo-2,3-dihydro-1H-isoindol-2-yl)butanoyl]pyrrolidine-2-carboxamide]	≥ 30	
Cc1ncsc1-c1ccc([C@H](C)NC(=O)[C@@H]2C[C@@H](O)CN2C(=O)[C@@H](c2cc(N3CCC(CN4CCC(O[C@H]5C[C@H](N6CCC7(CC6)CC(N6C8CCC6CN(c6cc(-c9ccccc9O)nnc6N)C8)C7)C5)CC4)CC3)no2)C(C)C)cc1 [Compound 44, (2S,4R)-4-hydroxy-N-[(1S)-1-[4-(4-methyl-1,3-thiazol-5-yl)phenyl]ethyl]-1-[(2R)-3-methyl-2-{3-[4-({4-[(1r,3r)-3-(2-{3-[3-amino-6-(2-hydroxyphenyl)pyridazin-4-yl]-3,8-diazabicyclo[3.2.1]octan-8-yl}-7-azaspiro[3.5]nonan-7-yl)cyclobutoxy]piperidin-1-yl}methyl)piperidin-1-yl]-1,2-oxazol-5-yl}butanoyl]pyrrolidine-2-carboxamide]	< 2.5	> 75
Cc1nccn1-c1ccc([C@H](C)NC(=O)[C@@H]2C[C@@H](O)CN2C(=O)[C@H](c2cc(N3CCC(CN4CCC(O[C@H]5C[C@H](N6CCC(C(C)n7cc(C#Cc8cc(-c9ccccc9O)nnc8N)cn7)CC6)C5)CC4)CC3)no2)C(C)C)cc1 (stereo partly drawn) [Compound 90, (2S,4R)-4-hydroxy-N-[(1S)-1-[4-(2-methyl-1H-imidazol-1-yl)phenyl]ethyl]-1-[(2S)-3-methyl-2-{3-[4-({4-[(1r,3r)-3-{4-[1-(4-{2-[3-amino-6-(2-hydroxyphenyl)pyridazin-4-yl]ethynyl}-1H-pyrazol-1-yl)ethyl]piperidin-1-yl}cyclobutoxy]piperidin-1-yl}methyl)piperidin-1-yl]-1,2-oxazol-5-yl}butanoyl]pyrrolidine-2-carboxamide]	≥ 30	
CC(C)[C@H](C(=O)N1C[C@H](O)C[C@H]1C(=O)N[C@@H](C)c1ccc(-c2ccnn2C)cc1)c1cc(N2CCC(CN3CCC(O[C@H]4C[C@H](Oc5cc(N6CCN(c7cc(-c8ccccc8O)nnc7N)CC6)ccn5)C4)CC3)CC2)no1 [Compound 2, (2S,4R)-4-hydroxy-N-[(1S)-1-[4-(1-methyl-1H-pyrazol-5-yl)phenyl]ethyl]-1-[(2S)-3-methyl-2-{3-[4-({4-[(1r,3r)-3-[(4-{4-[3-amino-6-(2-hydroxyphenyl)pyridazin-4-yl]piperazin-1-yl}pyridin-2-yl)oxy]cyclobutoxy]piperidin-1-yl}methyl)piperidin-1-yl]-1,2-oxazol-5-yl}butanoyl]pyrrolidine-2-carboxamide]	≥ 30	
Cc1ncsc1-c1ccc([C@H](C)NC(=O)[C@@H]2C[C@@H](O)CN2C(=O)[C@H](c2cc(N3CCN(C(=O)N4CCC(O[C@H]5C[C@H](Oc6cc(N7C8CCC7CN(c7cc(-c9ccccc9O)nnc7N)C8)ccn6)C5)CC4)CC3)no2)C(C)C)cc1 [Compound 124, (2S,4R)-4-hydroxy-N-[(1S)-1-[4-(4-methyl-1,3-thiazol-5-yl)phenyl]ethyl]-1-[(2R)-3-methyl-2-[3-(4-{4-[(1r,3r)-3-[(4-{3-[3-amino-6-(2-hydroxyphenyl)pyridazin-4-yl]-3,8-diazabicyclo[3.2.1]octan-8-yl}pyridin-2-yl)oxy]cyclobutoxy]piperidine-1-carbonyl}piperazin-1-yl)-1,2-oxazol-5-yl]butanoyl]pyrrolidine-2-carboxamide]	≥ 30	
Cc1ncsc1-c1ccc([C@H](C)NC(=O)[C@@H]2C[C@@H](O)CN2C(=O)[C@@H](c2cc(N3CCC(CN4CCC(O[C@H]5C[C@H](N6CC(F)(F)OC7(CCN(c8cc(-c9ccccc9O)nnc8N)CC7)C6)C5)CC4)CC3)no2)C(C)C)cc1 [Compound 55, (2S,4R)-4-hydroxy-N-[(1S)-1-[4-(4-methyl-1,3-thiazol-5-yl)phenyl]ethyl]-1-[(2R)-3-methyl-2-{3-[4-({4-[(1r,3r)-3-{9-[3-amino-6-(2-hydroxyphenyl)pyridazin-4-yl]-2,2-difluoro-1-oxa-4,9-diazaspiro[5.5]undecan-4-yl}cyclobutoxy]piperidin-1-yl}methyl)piperidin-1-yl]-1,2-oxazol-5-yl}butanoyl]pyrrolidine-2-carboxamide]	< 2.5	> 75
CC(C)[C@@H](C(=O)N1C[C@H](O)C[C@H]1C(=O)N[C@H](C)c1cc(F)c(C#N)cc1F)c1cc(N2CCC(CN3CCC(O[C@H]4C[C@H](Oc5cc(N6C7CCC6CN(c6cc(-c8ccccc8O)nnc6N)C7)ccn5)C4)CC3)CC2)no1 [Compound 3, (2S,4R)-N-[(1R)-1-(4-cyano-2,5-difluorophenyl)ethyl]-4-hydroxy-1-[(2R)-3-methyl-2-{3-[4-({4-[(1r,3r)-3-[(4-{3-[3-amino-6-(2-hydroxyphenyl)pyridazin-4-yl]-3,8-diazabicyclo[3.2.1]octan-8-yl}pyridin-2-yl)oxy]cyclobutoxy]piperidin-1-yl}methyl)piperidin-1-yl]-1,2-oxazol-5-yl}butanoyl]pyrrolidine-2-carboxamide]	≥ 30	
Cc1ncsc1-c1ccc([C@H](C)NC(=O)[C@@H]2C[C@@H](O)CN2C(=O)[C@@H](c2cc(N3CCC(CN4CCC(O[C@H]5C[C@H](N6CCC(C(C)(C)N7C8CCC7CN(c7cc(-c9ccccc9O)nnc7N)C8)CC6)C5)CC4)CC3)no2)C(C)C)cc1 [Compound 22, (2S,4R)-4-hydroxy-N-[(1S)-1-[4-(4-methyl-1,3-thiazol-5-yl)phenyl]ethyl]-1-[(2R)-3-methyl-2-{3-[4-({4-[(1r,3r)-3-[4-(2-{3-[3-amino-6-(2-hydroxyphenyl)pyridazin-4-yl]-3,8-diazabicyclo[3.2.1]octan-8-yl}propan-2-yl)piperidin-1-yl]cyclobutoxy]piperidin-1-yl}methyl)piperidin-1-yl]-1,2-oxazol-5-yl}butanoyl]pyrrolidine-2-carboxamide]	< 2.5	> 75
CC(NC(=O)[C@@H]1C[C@@H](O)CN1C(=O)[C@@H](c1cc(N2CCC(CN3CCC(O[C@H]4C[C@H](Oc5cc(N6C7CCC6CN(c6cc(-c8ccccc8O)nnc6N)C7)ccn5)C4)CC3)CC2)no1)C(C)C)c1ccc(C#N)c(F)c1 (stereo partly drawn) [Compound 4, (2S,4R)-N-[1-(4-cyano-3-fluorophenyl)ethyl]-4-hydroxy-1-[(2R)-3-methyl-2-{3-[4-({4-[(1r,3r)-3-[(4-{3-[3-amino-6-(2-hydroxyphenyl)pyridazin-4-yl]-3,8-diazabicyclo[3.2.1]octan-8-yl}pyridin-2-yl)oxy]cyclobutoxy]piperidin-1-yl}methyl)piperidin-1-yl]-1,2-oxazol-5-yl}butanoyl]pyrrolidine-2-carboxamide]	< 2.5	> 75
CC(C)[C@H](C(=O)N1C[C@H](O)C[C@H]1C(=O)N[C@@H](C)c1ccc(-c2ccnn2C)cc1)c1cc(N2CCC(CN3CCC(CN4CCC5(CC4)CC(Oc4cc(N6C7CCC6CN(c6cc(-c8ccccc8O)nnc6N)C7)ccn4)C5)CC3)CC2)no1 [Compound 33, (2S,4R)-1-[(2S)-2-[3-(4-{[4-({2-[(4-{3-[3-amino-6-(2-hydroxyphenyl)pyridazin-4-yl]-3,8-diazabicyclo[3.2.1]octan-8-yl}pyridin-2-yl)oxy]-7-azaspiro[3.5]nonan-7-yl}methyl)piperidin-1-yl]methyl}piperidin-1-yl)-1,2-oxazol-5-yl]-3-methylbutanoyl]-4-hydroxy-N-[(1S)-1-[4-(1-methyl-1H-pyrazol-5-yl)phenyl]ethyl]pyrrolidine-2-carboxamide]	10 to 30	> 75
